Data: a compilation of properties of binary mixtures (doi:10.2298/jsc160317058s)

Experiment: xn = mol fraction of the nth substance listed
Settings: 100 kPa

CN(C)c1ccccc1 + CCCC[n+]1ccn(C)c1.O=S(=O)([O-])C(F)(F)F
viscosity [mPa·s]
Settings | 288.15 K | 293.15 K | 298.15 K | 303.15 K | 308.15 K | 313.15 K | 318.15 K | 323.15 K | 328.15 K | 333.15 K
x1 = 0.1 | 97.6 | 75.7 | 59.9 | 48.1 | 39.5 | 32.2 | – | 23 | – | –
x1 = 0.2 | 72.8 | 57.1 | 45.7 | 37 | – | – | 21.46 | 18.3 | 15.74 | 13.64
x1 = 0.2998 | – | 42.8 | 34.8 | 28.4 | 23.9 | 19.91 | 17.1 | 14.72 | 12.77 | 11.16
x1 = 0.397 | – | 31.5 | – | 21.69 | 18.27 | 15.46 | 13.4 | 11.63 | 10.19 | 8.98
x1 = 0.5045 | 26.1 | 21.17 | 17.76 | 14.77 | 12.85 | 11.04 | 9.68 | 8.5 | 7.52 | –
x1 = 0.5996 | 16.87 | 13.93 | 11.92 | 10.23 | 8.87 | 7.69 | 6.84 | 6.08 | 5.43 | 4.9
x1 = 0.6997 | – | 8.5 | 7.42 | 6.47 | 5.71 | – | – | 4.09 | 3.7 | 3.36
x1 = 0.7994 | 6 | 5.21 | 4.62 | 4.1 | 3.68 | 3.3 | 3.01 | 2.75 | 2.52 | 2.31
x1 = 0.8945 | 3.27 | 2.91 | – | 2.37 | 2.164 | 1.988 | – | 1.692 | – | –
x1 = 1 | – | – | 1.302 | 1.206 | 1.123 | 1.056 | 0.981 | – | 0.865 | 0.819

Nc1ccccc1 + CCCC[n+]1ccn(C)c1.O=S(=O)([O-])C(F)(F)F
x1 = 1
Settings | viscosity [mPa·s]
288.15 K | 5.32
293.15 K | 4.41
298.15 K | 3.74
303.15 K | 3.2
308.15 K | 2.78
313.15 K | 2.45
318.15 K | 2.159
328.15 K | 1.738
333.15 K | 1.577

CCCC[n+]1ccn(C)c1.O=S(=O)([O-])C(F)(F)F + CN(C)c1ccccc1
x2 = 0
Settings | viscosity [mPa·s]
288.15 K | 132.7
293.15 K | 102
298.15 K | 80.1
303.15 K | 64
313.15 K | 42.8
318.15 K | 35.7
323.15 K | 30
328.15 K | 25.5
333.15 K | 22

CCCC[n+]1ccn(C)c1.O=S(=O)([O-])C(F)(F)F + Nc1ccccc1
viscosity [mPa·s]
Settings | 288.15 K | 293.15 K | 298.15 K | 303.15 K | 308.15 K | 313.15 K | 318.15 K | 323.15 K | 328.15 K | 333.15 K
x2 = 0 | – | 102 | 80.1 | 64 | 52.2 | 42.8 | 35.7 | 30 | 25.5 | 22
x2 = 0.1 | 110.3 | 85.3 | 67.5 | 54.6 | 44.4 | 36.6 | 30.6 | 25.9 | 22.17 | 19.07
x2 = 0.1995 | 90.9 | 70.6 | – | 45.5 | 37.2 | 30.7 | 25.8 | 21.9 | 18.82 | –
x2 = 0.3002 | – | – | 45.9 | – | 30.6 | 25.4 | 21.47 | – | 15.71 | 13.63
x2 = 0.3996 | – | – | – | – | – | – | – | 15.11 | 13.02 | 11.38
x2 = 0.8999 | 8.95 | 7.31 | 6.18 | 5.26 | 4.54 | 3.93 | 3.5 | – | – | 2.47
